Reference: paper PMC13044524 (Molecular Cancer Therapeutics, 2025)

Experiments:
MCF-7 cells = assay: Cell proliferation assay, MCF-7; assay type: cell-based; conditions: Homo sapiens, MCF7, 144 h, read-out: IC50 E2-mediated proliferation
uterine tissue = assay: Rat uterine wet weight assay; assay type: in vivo, Sprague–Dawley CD-IGS rats; conditions: immature rats; for epithelia height of uterine tissue (histologic staining): 3 days, compared with vehicle; for uterine wet weight (UWW): once daily for 3 days
[1] = test system: bone (femur and tibia) of OVX mice; assay: Osteoporosis; assay type: in vivo, C57BL/6 mice; conditions: 12 weeks of treatment

IC50 (MCF-7 cells) [nM]	epithelia height of uterine tissue (histologic staining) (uterine tissue)	uterine wet weight (UWW) (uterine tissue)	SMILES	bone mineral density (BMD) of femur and tibia [1]
0.3	–	–	CCNCCc1ccc(CN(CC)c2cc(OC)ccc2[C@@H]2CCc3cc(O)ccc3C2)cc1 [elacestrant]	–
–	dramatically increased	significantly increase UWW	CC/C(=C(\c1ccccc1)c1ccc(OCCN(C)C)cc1)c1ccccc1 [Tamoxifen]	significantly increased BMD
0.2	–	seemed to decrease uterine weight	C[C@]12CC[C@@H]3c4ccc(O)cc4C[C@@H](CCCCCCCCC[S+]([O-])CCCC(F)(F)C(F)(F)F)[C@H]3[C@@H]1CC[C@@H]2O (stereo partly drawn) [Fulvestrant]	further decreased BMD

SMILES	IC50 (MCF-7 cells) [nM]	epithelia height of uterine tissue (histologic staining) (uterine tissue)	uterine wet weight (UWW) (uterine tissue)	bone mineral density (BMD) of femur and tibia [1]
C[C@@H]1Cc2c([nH]c3ccccc23)[C@@H](c2c(F)cc(/C=C/C(=O)O)cc2F)N1CC(C)(C)F [AZD9496, (E)-3-(3,5-Difluoro-4-((1R,3R)-2-(2-fluoro-2-methylpropyl)-3-methyl-2,3,4,9-tetrahydro-1H-pyrido[3,4-b]indol-1-yl)phenyl)acrylic acid]	–	slightly increased	did not affect uterine weight significantly	–
